Values quoted from earlier work as cited in patent publication EP1048712A1, “A process of treating fabrics with a laundry detergent additive tablet” (THE PROCTER & GAMBLE COMPANY, priority 1999, dated 2000).

Conditions: 25°C

Molecule | base hydrolysis rates (kOH) [M⁻¹ s⁻¹]
N#CS [NCS-] | 0.0005
CC(=O)O [acetate] | 0.00096
O=CO [formate] | 0.00058
oxalate | 0.00025
